Results on five molecules are retold here after PubChem BioAssay (NCI).

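Values below derive from 48-hour exposures of cells grown in 96-well plates, with endpoints linearly interpolated between the two concentrations bracketing the appropriate inhibition level. At the TGI there is no net growth.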 A value given as a limit tells only on which side of the number the result lay.

One assay concerns SK-MEL-2 melanoma. The assay can be described thus: NCI tumour cell line growth inhibition, 48 h.
`CC[C@@]12N=C(N(C)C)C[C@]1(O)ON=C2C` returned a TGI greater than 100 µM.
Take `CCOC(=O)NC(=O)c1cn(CCOC(=O)NCCCCCCNC(=O)OCCn2cc(C(=O)NC(=O)OCC)c(=O)[nH]c2=O)c(=O)[nH]c1=O`: the TGI was greater than 100 µM.
In turn, `O=C(CSc1nnc(-c2ccc(N=Cc3ccc(Cl)cc3)cc2)o1)Nc1ccc(Cl)cc1` returned a TGI greater than 100 µM.

The subject of a further assay is MALME-3M melanoma. Kind of assay: NCI tumour cell line growth inhibition, 48 h.
For the molecule `CC[C@@]12N=C(N(C)C)C[C@]1(O)ON=C2C`, the TGI was greater than 100 µM.
For the molecule `CCOC(=O)NC(=O)c1cn(CCOC(=O)NCCCCCCNC(=O)OCCn2cc(C(=O)NC(=O)OCC)c(=O)[nH]c2=O)c(=O)[nH]c1=O`, the TGI was greater than 100 µM.
Regarding `O=S(Cc1ccccn1)c1nc2ccccc2nc1-c1ccccc1` (centres undefined), the TGI was 97.7 µM.
In turn, `O=C(CSc1nnc(-c2ccc(N=Cc3ccc(Cl)cc3)cc2)o1)Nc1ccc(Cl)cc1` registered a TGI greater than 100 µM.

Another assay relates to LXFL 529 NSCLC. Kind of assay: NCI tumour cell line growth inhibition, 48 h.
As for `CC[C@@]12N=C(N(C)C)C[C@]1(O)ON=C2C`, the TGI is greater than 100 µM.
`CCOC(=O)NC(=O)c1cn(CCOC(=O)NCCCCCCNC(=O)OCCn2cc(C(=O)NC(=O)OCC)c(=O)[nH]c2=O)c(=O)[nH]c1=O` returned a TGI greater than 100 µM.
As to `COC1[C@@H](OC(C)=O)[C@@H](NC(=O)C(Cl)(Cl)Cl)C(I)[C@@H](N2C(=O)c3ccccc3C2=O)[C@H]1OC` (some centres undefined), the TGI is greater than 100 µM.
In turn, `O=S(Cc1ccccn1)c1nc2ccccc2nc1-c1ccccc1` (centres undefined) had a TGI greater than 100 µM.
Take `O=C(CSc1nnc(-c2ccc(N=Cc3ccc(Cl)cc3)cc2)o1)Nc1ccc(Cl)cc1`: the TGI was greater than 100 µM.

For another assay, the system named is ACHN renal. The assay can be described thus: NCI tumour cell line growth inhibition, 48 h.
Regarding `CC[C@@]12N=C(N(C)C)C[C@]1(O)ON=C2C`, the TGI is greater than 100 µM.
`CCOC(=O)NC(=O)c1cn(CCOC(=O)NCCCCCCNC(=O)OCCn2cc(C(=O)NC(=O)OCC)c(=O)[nH]c2=O)c(=O)[nH]c1=O` came in with a TGI greater than 100 µM.
The same measure, in the same setting: in the case of `COC1[C@@H](OC(C)=O)[C@@H](NC(=O)C(Cl)(Cl)Cl)C(I)[C@@H](N2C(=O)c3ccccc3C2=O)[C@H]1OC` (some centres undefined) it was greater than 100 µM.
`O=S(Cc1ccccn1)c1nc2ccccc2nc1-c1ccccc1` (centres undefined): the TGI is greater than 100 µM.
In the case of `O=C(CSc1nnc(-c2ccc(N=Cc3ccc(Cl)cc3)cc2)o1)Nc1ccc(Cl)cc1`, the TGI is greater than 100 µM.

For a further assay, the system named is HL-60(TB) leukemia. The assay can be described thus: NCI tumour cell line growth inhibition, 48 h.
As to `CC[C@@]12N=C(N(C)C)C[C@]1(O)ON=C2C`, the TGI was greater than 100 µM.
The molecule `CCOC(=O)NC(=O)c1cn(CCOC(=O)NCCCCCCNC(=O)OCCn2cc(C(=O)NC(=O)OCC)c(=O)[nH]c2=O)c(=O)[nH]c1=O` registered a TGI greater than 100 µM.
The same measure, in the same setting: the same measure for `COC1[C@@H](OC(C)=O)[C@@H](NC(=O)C(Cl)(Cl)Cl)C(I)[C@@H](N2C(=O)c3ccccc3C2=O)[C@H]1OC` (some centres undefined): greater than 100 µM.
For `O=S(Cc1ccccn1)c1nc2ccccc2nc1-c1ccccc1` (centres undefined), the TGI turned out to be 80.7 µM.
The molecule `O=C(CSc1nnc(-c2ccc(N=Cc3ccc(Cl)cc3)cc2)o1)Nc1ccc(Cl)cc1` showed a TGI greater than 100 µM.

The next assay deals with RXF 393 renal. The assay can be described thus: NCI tumour cell line growth inhibition, 48 h.
On to `CC[C@@]12N=C(N(C)C)C[C@]1(O)ON=C2C`, for which the TGI is greater than 100 µM.
Molecule `CCOC(=O)NC(=O)c1cn(CCOC(=O)NCCCCCCNC(=O)OCCn2cc(C(=O)NC(=O)OCC)c(=O)[nH]c2=O)c(=O)[nH]c1=O` returned a TGI greater than 100 µM.
Regarding `COC1[C@@H](OC(C)=O)[C@@H](NC(=O)C(Cl)(Cl)Cl)C(I)[C@@H](N2C(=O)c3ccccc3C2=O)[C@H]1OC` (some centres undefined), the TGI is greater than 100 µM.
`O=C(CSc1nnc(-c2ccc(N=Cc3ccc(Cl)cc3)cc2)o1)Nc1ccc(Cl)cc1` registered a TGI greater than 100 µM.

The next assay deals with UACC-257 melanoma. The assay can be described thus: NCI tumour cell line growth inhibition, 48 h.
`CCOC(=O)NC(=O)c1cn(CCOC(=O)NCCCCCCNC(=O)OCCn2cc(C(=O)NC(=O)OCC)c(=O)[nH]c2=O)c(=O)[nH]c1=O` yielded a TGI greater than 100 µM.
Still for that read-out and setting: the same measure for `COC1[C@@H](OC(C)=O)[C@@H](NC(=O)C(Cl)(Cl)Cl)C(I)[C@@H](N2C(=O)c3ccccc3C2=O)[C@H]1OC` (some centres undefined): greater than 100 µM; for `O=S(Cc1ccccn1)c1nc2ccccc2nc1-c1ccccc1` (centres undefined): 82 µM; for `O=C(CSc1nnc(-c2ccc(N=Cc3ccc(Cl)cc3)cc2)o1)Nc1ccc(Cl)cc1`: greater than 100 µM.

In the next assay the test system is EKVX NSCLC. The assay can be described thus: NCI tumour cell line growth inhibition, 48 h.
Molecule `CC[C@@]12N=C(N(C)C)C[C@]1(O)ON=C2C` came in with a TGI greater than 100 µM.
Consider `CCOC(=O)NC(=O)c1cn(CCOC(=O)NCCCCCCNC(=O)OCCn2cc(C(=O)NC(=O)OCC)c(=O)[nH]c2=O)c(=O)[nH]c1=O`, for which the TGI was greater than 100 µM.
In turn, `COC1[C@@H](OC(C)=O)[C@@H](NC(=O)C(Cl)(Cl)Cl)C(I)[C@@H](N2C(=O)c3ccccc3C2=O)[C@H]1OC` (some centres undefined) showed a TGI greater than 100 µM.
The same measure, in the same setting: the same measure for `O=S(Cc1ccccn1)c1nc2ccccc2nc1-c1ccccc1` (centres undefined): 73.7 µM; for `O=C(CSc1nnc(-c2ccc(N=Cc3ccc(Cl)cc3)cc2)o1)Nc1ccc(Cl)cc1`: greater than 100 µM.

Another assay deals with SN12C renal. The assay can be described thus: NCI tumour cell line growth inhibition, 48 h.
`CC[C@@]12N=C(N(C)C)C[C@]1(O)ON=C2C` had a TGI greater than 100 µM.
For `CCOC(=O)NC(=O)c1cn(CCOC(=O)NCCCCCCNC(=O)OCCn2cc(C(=O)NC(=O)OCC)c(=O)[nH]c2=O)c(=O)[nH]c1=O`, the TGI was greater than 100 µM.
Molecule `COC1[C@@H](OC(C)=O)[C@@H](NC(=O)C(Cl)(Cl)Cl)C(I)[C@@H](N2C(=O)c3ccccc3C2=O)[C@H]1OC` (some centres undefined) showed a TGI greater than 100 µM.
Molecule `O=S(Cc1ccccn1)c1nc2ccccc2nc1-c1ccccc1` (centres undefined) had a TGI greater than 100 µM.
Turning to `O=C(CSc1nnc(-c2ccc(N=Cc3ccc(Cl)cc3)cc2)o1)Nc1ccc(Cl)cc1`, the TGI was greater than 100 µM.

For the next assay, the system named is DMS 114 small cell lung. The assay can be described thus: NCI tumour cell line growth inhibition, 48 h.
Consider `CC[C@@]12N=C(N(C)C)C[C@]1(O)ON=C2C`, for which the TGI is greater than 100 µM.
Still for that read-out and setting: the same measure for `CCOC(=O)NC(=O)c1cn(CCOC(=O)NCCCCCCNC(=O)OCCn2cc(C(=O)NC(=O)OCC)c(=O)[nH]c2=O)c(=O)[nH]c1=O`: greater than 100 µM.
`COC1[C@@H](OC(C)=O)[C@@H](NC(=O)C(Cl)(Cl)Cl)C(I)[C@@H](N2C(=O)c3ccccc3C2=O)[C@H]1OC` (some centres undefined) came in with a TGI greater than 100 µM.
On to `O=S(Cc1ccccn1)c1nc2ccccc2nc1-c1ccccc1` (centres undefined), for which the TGI came to 69.6 µM.
As for `O=C(CSc1nnc(-c2ccc(N=Cc3ccc(Cl)cc3)cc2)o1)Nc1ccc(Cl)cc1`, the TGI is greater than 100 µM.

The next assay relates to COLO 205 colon. The assay can be described thus: NCI tumour cell line growth inhibition, 48 h.
Molecule `CC[C@@]12N=C(N(C)C)C[C@]1(O)ON=C2C` showed a TGI greater than 100 µM.
`CCOC(=O)NC(=O)c1cn(CCOC(=O)NCCCCCCNC(=O)OCCn2cc(C(=O)NC(=O)OCC)c(=O)[nH]c2=O)c(=O)[nH]c1=O`: the TGI is greater than 100 µM.
The molecule `COC1[C@@H](OC(C)=O)[C@@H](NC(=O)C(Cl)(Cl)Cl)C(I)[C@@H](N2C(=O)c3ccccc3C2=O)[C@H]1OC` (some centres undefined) displayed a TGI greater than 100 µM.
In the case of `O=S(Cc1ccccn1)c1nc2ccccc2nc1-c1ccccc1` (centres undefined), the TGI worked out at 32.8 µM.
The molecule `O=C(CSc1nnc(-c2ccc(N=Cc3ccc(Cl)cc3)cc2)o1)Nc1ccc(Cl)cc1` gave a TGI greater than 100 µM.

The subject of the next assay is CCRF-CEM leukemia. The assay can be described thus: NCI tumour cell line growth inhibition, 48 h.
As for `CC[C@@]12N=C(N(C)C)C[C@]1(O)ON=C2C`, the TGI was greater than 100 µM.
`CCOC(=O)NC(=O)c1cn(CCOC(=O)NCCCCCCNC(=O)OCCn2cc(C(=O)NC(=O)OCC)c(=O)[nH]c2=O)c(=O)[nH]c1=O` came in with a TGI greater than 100 µM.
`COC1[C@@H](OC(C)=O)[C@@H](NC(=O)C(Cl)(Cl)Cl)C(I)[C@@H](N2C(=O)c3ccccc3C2=O)[C@H]1OC` (some centres undefined) gave a TGI greater than 100 µM.
For `O=S(Cc1ccccn1)c1nc2ccccc2nc1-c1ccccc1` (centres undefined), the TGI was greater than 100 µM.
The molecule `O=C(CSc1nnc(-c2ccc(N=Cc3ccc(Cl)cc3)cc2)o1)Nc1ccc(Cl)cc1` came in with a TGI greater than 100 µM.

In the next assay the test system is K-562 leukemia. The assay can be described thus: NCI tumour cell line growth inhibition, 48 h.
`CC[C@@]12N=C(N(C)C)C[C@]1(O)ON=C2C` showed a TGI greater than 100 µM.
As to `CCOC(=O)NC(=O)c1cn(CCOC(=O)NCCCCCCNC(=O)OCCn2cc(C(=O)NC(=O)OCC)c(=O)[nH]c2=O)c(=O)[nH]c1=O`, the TGI was greater than 100 µM.
Molecule `COC1[C@@H](OC(C)=O)[C@@H](NC(=O)C(Cl)(Cl)Cl)C(I)[C@@H](N2C(=O)c3ccccc3C2=O)[C@H]1OC` (some centres undefined) yielded a TGI greater than 100 µM.
In the case of `O=S(Cc1ccccn1)c1nc2ccccc2nc1-c1ccccc1` (centres undefined), the TGI was greater than 100 µM.
